These results are taken from patent US20190225650A1, “PEPTIDOMIMETIC MACROCYCLES AND USE THEREOF IN REGULATING HIF1ALPHA” (AILERON THERAPEUTICS, INC., priority 2013, published 2019).

Bridge positions count the residues as written; N and C are the ends. Square brackets hold non-standard residues; d marks the D form. Peptide text beside a SMILES is read from it. R8 = C=CCCCCCC[C@@](C)(N)C(=O)O; S5 = C=CCCC[C@](C)(N)C(=O)O; Nle = CCCC[C@H](N)C(=O)O A value given as a limit tells only on which side of the number the result lay.

The target of experiment [1] is T1, flag-tagged HIF1α (AA 786-826) / His6-tagged p300 (AA 323-423) complex (Homo sapiens, UniProt Q09472).
T1 construct: His6-tagged p300 (AA 323-423); made in house; host or cells: E. coli (pETDuet vector)
T1 sequence (Q09472 323-423, one chain of several): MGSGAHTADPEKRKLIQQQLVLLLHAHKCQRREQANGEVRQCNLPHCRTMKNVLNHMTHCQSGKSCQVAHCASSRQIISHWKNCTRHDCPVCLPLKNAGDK
In words: HIF1α p300 displacement assay (TR FRET, +CHAPS). Conditions: read-out: IC50 (nM) (HIF1α_p300 Displacement + CHAPS). It is filed as binding. A digest of the protocol: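 In this TR-FRET displacement format, peptides compete HIF1α C-terminal transactivation domain off p300-CH. They were preincubated 1 h at room temperature with 300 nM complex in HEPES pH 7.4/NaCl buffer with 7.5 mM CHAPS and 1 mM DTT. Anti-His-D2 (4 nM) and anti-Flag-K (0.5 μM) followed for 2 h, and a one-site fit of the fluorescence ratio gave IC50.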
(Time-resolved FRET reads energy transfer from a long-lived donor to a nearby acceptor.)

The subject of experiment [2] is HRE-bla ME-180 cells. Description: Cell proliferation assay (viability, MTT, 1% FBS). The class given is cell-based, human. The essentials: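 Viable cell number was measured with the CellTiter 96 (MTT) kit after compounds were applied for a 16 h normoxic (21% O2) pretreatment, followed by further normoxic or hypoxic (1% O2) culture. Cells: 2×10^4 ME-180 per well, Opti-MEM + 1% FBS, 0.5% DMSO vehicle.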

The subject of experiment [3] is HRE-bla ME-180 cells. Description: Reporter gene assay (HRE-bla ME-180 HIF reporter, GeneBLAzer). The class given is cell-based, human. Conditions: for EC50: 24 hour normoxia. The essentials: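 A FRET β-lactamase readout of HIF transcription was used. After compound treatment in 0.3% DMSO/media under normoxic conditions, 20 μl of 6× LiveBLAzer-FRET B/G (CCF4-AM) substrate was added. Plates sat 3 hr at room temperature in the dark and were read at 409 Ex/460Em and 409Ex/530Em on a Synergy 2. Inhibition was compared against DMSO vehicle controls, with chetomin as positive control.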
In general terms: In a reporter assay the amount or activity of a reporter protein is the signal.

A word on the IC50: it is the concentration at which inhibition is half-maximal. Broadly, the EC50 is the concentration that produces a half-maximal response. In the case of `CCCC[C@H](NC(=O)[C@H](CCC(=O)O)NC(=O)[C@]1(C)CCCC=CCCCCCC[C@@](C)(NC(=O)[C@H](C)NC(=O)[C@H](CC(=O)O)NC(=O)[C@@H](NC(=O)[C@H](CC(N)=O)NC(=O)[C@@H](NC(=O)[C@H](CCC(N)=O)NC(=O)[C@]2(C)CCCC=CCCC[C@](C)(NC(=O)[C@H](CC(C)C)NC(=O)[C@H](CCC(=O)O)NC(=O)[C@H](CCC(=O)O)NC(=O)CNC(=O)[C@H](CCC(N)=O)NC(=O)[C@H](CC(C)C)NC(=O)[C@H](CC(C)C)NC(C)=O)C(=O)N[C@@H](CCCNC(=N)N)C(=O)N[C@@H](C)C(=O)N[C@@H](CC(C)C)C(=O)N2)C(C)C)[C@@H](C)CC)C(=O)N[C@@H](C(C)C)C(=O)N[C@@H](CC(C)C)C(=O)N[C@@H](CCCC)C(=O)N[C@@H](CO)C(=O)N[C@@H](CC(C)C)C(=O)N[C@@H](C(C)C)C(=O)N1)C(N)=O` [SP-362] (Ac-LLQGEEL[S5]RAL[S5]QVNIDA[R8]VL[Nle]SLV[S5]E[Nle]-NH2; staple 8-12, 19-26), in experiment [1], the IC50 was 400 to 700 nM. In addition, the “Viability 1% FBS AVG (MTT V3-24 hr Normoxia) (μM)” value (from here on “Viability 1% FBS AVG”) in experiment [2] is given as “++++ (≥30: ++++)”. Also, in experiment [3], the “18 h Avg % max inhibition at top conc (HIF Rptr-24 hrs normoxia) (μM)” value (shortened to “18 h Avg % max inhibition at top conc”) is reported as “++++ (≥50: ++++)” and the concentration giving a half-maximal response (EC50) is 5 to 15 µM.

Turning to `CCCC[C@H](NC(=O)[C@H](C)NC(=O)[C@]1(C)CCCC=CCCCCCC[C@@](C)(NC(=O)[C@H](CCC(=O)O)NC(=O)[C@H](CC(=O)O)NC(=O)[C@@H](NC(=O)[C@H](CC(N)=O)NC(=O)[C@@H](NC(=O)[C@H](CCC(N)=O)NC(=O)[C@]2(C)CCCC=CCCC[C@](C)(NC(=O)[C@H](CC(C)C)NC(=O)[C@H](CCC(=O)O)NC(=O)[C@H](CCC(=O)O)NC(=O)CNC(=O)[C@H](CCC(N)=O)NC(=O)[C@H](CC(C)C)NC(=O)[C@H](CC(C)C)NC(C)=O)C(=O)N[C@@H](CCCNC(=N)N)C(=O)N[C@@H](C)C(=O)N[C@@H](CC(C)C)C(=O)N2)C(C)C)[C@@H](C)CC)C(=O)N[C@@H](C(C)C)C(=O)N[C@@H](CC(C)C)C(=O)N[C@@H](CCCC)C(=O)N[C@@H](CO)C(=O)N[C@@H](CC(C)C)C(=O)N[C@@H](C(C)C)C(=O)N1)C(N)=O` [SP-363] (Ac-LLQGEEL[S5]RAL[S5]QVNIDE[R8]VL[Nle]SLV[S5]A[Nle]-NH2; staple 8-12, 19-26), the concentration for half-maximal inhibition (IC50) in experiment [1] is more than 700 nM. Further, the “Viability 1% FBS AVG” value in experiment [2] was “++++ (≥30: ++++)”. In experiment [3], the “18 h Avg % max inhibition at top conc” value is listed as “++ (≤10 but <25: ++)” and the 50% effective concentration (EC50) is more than 30 µM.

As to `CCCC[C@H](NC(=O)[C@H](CCC(=O)O)NC(=O)[C@]1(C)CCCC=CCCCCCC[C@@](C)(NC(=O)[C@H](CCC(=O)O)NC(=O)[C@H](C)NC(=O)[C@@H](NC(=O)[C@H](CC(N)=O)NC(=O)[C@@H](NC(=O)[C@H](CCC(N)=O)NC(=O)[C@]2(C)CCCC=CCCC[C@](C)(NC(=O)[C@H](CC(C)C)NC(=O)[C@H](CCC(=O)O)NC(=O)[C@H](CCC(=O)O)NC(=O)CNC(=O)[C@H](CCC(N)=O)NC(=O)[C@H](CC(C)C)NC(=O)[C@H](CC(C)C)NC(C)=O)C(=O)N[C@@H](CCCNC(=N)N)C(=O)N[C@@H](C)C(=O)N[C@@H](CC(C)C)C(=O)N2)C(C)C)[C@@H](C)CC)C(=O)N[C@@H](C(C)C)C(=O)N[C@@H](CC(C)C)C(=O)N[C@@H](CCCC)C(=O)N[C@@H](CO)C(=O)N[C@@H](CC(C)C)C(=O)N[C@@H](C(C)C)C(=O)N1)C(N)=O` [SP-365] (Ac-LLQGEEL[S5]RAL[S5]QVNIAE[R8]VL[Nle]SLV[S5]E[Nle]-NH2; staple 8-12, 19-26), the IC50 in experiment [1] was more than 700 nM. Moreover, the “Viability 1% FBS AVG” value in experiment [2] is reported as “++++ (≥30: ++++)”. In addition, in experiment [3], the “18 h Avg % max inhibition at top conc” value is listed as “+++ (≤25 but <50: +++)” and the EC50 is more than 30 µM.

As for `CCCC[C@H](NC(=O)[C@H](CCC(=O)O)NC(=O)[C@]1(C)CCCC=CCCCCCC[C@@](C)(NC(=O)[C@H](CCC(=O)O)NC(=O)[C@H](CC(=O)O)NC(=O)[C@@H](NC(=O)[C@H](CC(N)=O)NC(=O)[C@@H](NC(=O)[C@H](CCC(N)=O)NC(=O)[C@]2(C)CCCC=CCCC[C@](C)(NC(=O)[C@H](CC(C)C)NC(=O)[C@H](CCC(=O)O)NC(=O)[C@H](CCC(=O)O)NC(C)=O)C(=O)N[C@@H](CCCNC(=N)N)C(=O)N[C@@H](C)C(=O)N[C@@H](CC(C)C)C(=O)N2)C(C)C)[C@@H](C)CC)C(=O)N[C@@H](C(C)C)C(=O)N[C@@H](CC(C)C)C(=O)N[C@@H](CCCC)C(=O)N[C@@H](CO)C(=O)N[C@@H](CC(C)C)C(=O)N[C@@H](C(C)C)C(=O)N1)C(N)=O` [SP-366] (Ac-EEL[S5]RAL[S5]QVNIDE[R8]VL[Nle]SLV[S5]E[Nle]-NH2; staple 4-8, 15-22), the concentration for half-maximal inhibition (IC50) in experiment [1] is more than 700 nM. Moreover, the “Viability 1% FBS AVG” value in experiment [2] is “++++ (≥30: ++++)”. In experiment [3], the “18 h Avg % max inhibition at top conc” value is recorded as “++++ (≥50: ++++)” and the EC50 is not above 5 µM.

Turning to `CCCC[C@H](NC(=O)[C@H](CCC(=O)O)NC(=O)[C@]1(C)CCCC=CCCCCCC[C@@](C)(NC(=O)[C@H](CCC(=O)O)NC(=O)[C@H](CC(=O)O)NC(=O)[C@@H](NC(=O)[C@H](CC(N)=O)NC(=O)[C@@H](NC(=O)[C@H](CCC(N)=O)NC(=O)[C@]2(C)CCCC=CCCC[C@](C)(NC(=O)[C@H](CC(C)C)NC(=O)[C@H](CCC(=O)O)NC(=O)[C@H](CCC(=O)O)NC(=O)[C@H](C)NC(=O)[C@H](CCC(N)=O)NC(=O)[C@H](CC(C)C)NC(=O)[C@H](CC(C)C)NC(C)=O)C(=O)N[C@@H](CCCNC(=N)N)C(=O)N[C@@H](C)C(=O)N[C@@H](CC(C)C)C(=O)N2)C(C)C)[C@@H](C)CC)C(=O)N[C@@H](C(C)C)C(=O)N[C@@H](CC(C)C)C(=O)N[C@@H](CCCC)C(=O)N[C@@H](CO)C(=O)N[C@@H](CC(C)C)C(=O)N[C@@H](C(C)C)C(=O)N1)C(N)=O` [SP-367] (Ac-LLQAEEL[S5]RAL[S5]QVNIDE[R8]VL[Nle]SLV[S5]E[Nle]-NH2; staple 8-12, 19-26), the IC50 in experiment [1] was in the range of 400 to 700 nM. In addition, the “Viability 1% FBS AVG” value in experiment [2] was “++++ (≥30: ++++)”. In experiment [3], the “18 h Avg % max inhibition at top conc” value was “++++ (≥50: ++++)” and the EC50 is not above 5 µM.

In the case of `CCCC[C@H](NC(=O)[C@H](CC(C)C)NC(=O)[C@@H](NC(=O)[C@H](CCC(=O)O)NC(=O)[C@H](CCC(=O)O)NC(=O)[C@H](CC(=O)O)NC(=O)[C@@H](NC(=O)[C@H](CC(N)=O)NC(=O)[C@@H](NC(=O)[C@]1(C)CCCC=CCCCCCC[C@@](C)(NC(=O)[C@H](CCC(=O)O)NC(=O)CNC(=O)[C@H](CCC(N)=O)NC(=O)[C@H](CC(C)C)NC(=O)[C@H](CC(C)C)NC(C)=O)C(=O)N[C@@H](CC(C)C)C(=O)N[C@@H](CC(C)C)C(=O)N[C@@H](CCCNC(=N)N)C(=O)N[C@@H](C)C(=O)N[C@@H](CC(C)C)C(=O)N[C@@H](CC(=O)O)C(=O)N1)C(C)C)[C@@H](C)CC)C(C)C)C(=O)N[C@@]1(C)CCCC=CCCC[C@@](C)(C(=O)N[C@@H](CCCC)C(=O)N[C@@H](C)C(=O)N[C@@H](CC(C)C)C(N)=O)NC(=O)[C@H]([C@@H](C)CC)NC(=O)[C@H](C(C)C)NC(=O)[C@H](CC(C)C)NC1=O` [SP-372] (Ac-LLQGE[R8]LLRALD[S5]VNIDEEVL[Nle][S5]LVI[S5][Nle]AL-NH2; staple 6-13, 23-27), the IC50 in experiment [1] fell in the range of 400 to 700 nM. Also, in experiment [2], the “Viability 1% FBS AVG” value is “++++ (≥30: ++++)”. Moreover, in experiment [3], the “18 h Avg % max inhibition at top conc” value is reported as “++++ (≥50: ++++)” and the EC50 was more than 30 µM.

With `CCCC[C@H](NC(=O)[C@H](CCC(=O)O)NC(=O)[C@]1(C)CCCC=CCCCCCC[C@@](C)(NC(=O)[C@H](CCC(=O)O)NC(=O)[C@H](CC(=O)O)NC(=O)[C@@H](NC(=O)[C@H](CC(N)=O)NC(=O)[C@@H](NC(=O)[C@]2(C)CCCC=CCCCCCC[C@@](C)(NC(=O)[C@H](CCC(=O)O)NC(=O)CNC(=O)[C@H](CCC(N)=O)NC(=O)[C@H](CC(C)C)NC(=O)[C@H](CC(C)C)NC(C)=O)C(=O)N[C@@H](CC(C)C)C(=O)N[C@@H](CC(C)C)C(=O)N[C@@H](CCCNC(=N)N)C(=O)N[C@@H](C)C(=O)N[C@@H](CC(C)C)C(=O)N[C@@H](CC(=O)O)C(=O)N2)C(C)C)[C@@H](C)CC)C(=O)N[C@@H](C(C)C)C(=O)N[C@@H](CC(C)C)C(=O)N[C@@H](CCCC)C(=O)N[C@@H](CO)C(=O)N[C@@H](CC(C)C)C(=O)N[C@@H](C(C)C)C(=O)N1)C(=O)N[C@@H](C)C(=O)N[C@@H](CC(C)C)C(N)=O` [SP-373] (Ac-LLQGE[R8]LLRALD[S5]VNIDE[R8]VL[Nle]SLV[S5]E[Nle]AL-NH2; staple 6-13, 19-26), the IC50 in experiment [1] was 200 to 400 nM. Further, the “Viability 1% FBS AVG” value in experiment [2] is “++++ (≥30: ++++)”. Besides, in experiment [3], the “18 h Avg % max inhibition at top conc” value was “+++ (≤25 but <50: +++)” and the EC50 was more than 30 µM.
